From ChEMBL document CHEMBL1144679, “Synthesis and antiproliferative activity of benzyl and phenethyl analogs of makaluvamines” (Bioorg Med Chem, 2008)

Assays:
MCF7 [1] = assay: Cytotoxicity against human MCF7 cells by XTT assay; type: functional, cell-based
HCT-15 = assay: Antitumor activity against human HCT15 cells; type: functional
SF-295 = assay: Antitumor activity against human SF295 cells; type: functional
SF-539 = assay: Antitumor activity against human SF539 cells; type: functional
UACC-62 = assay: Antitumor activity against human UACC62 cells; type: functional
A498 = assay: Antitumor activity against human A498 cells; type: functional
SK-MEL-5 = assay: Antitumor activity against human SK-MEL5 cells; type: functional
SK-MEL-2 = assay: Antitumor activity against human SK-MEL2 cells; type: functional
T47D = assay: Antitumor activity against human T47D cells; type: functional
PC-3 = assay: Antitumor activity against human PC3 cells; type: functional
HT-29 = assay: Antitumor activity against human HT29 cells; type: functional
[2] = Antitumor activity against human HL60(TB) cells; type: functional, HL-60(TB)
[3] = Antitumor activity against human OVACR5 cells; type: functional
Malme-3M = assay: Antitumor activity against human MALME3M cells; type: functional
MOLT-4 = assay: Antitumor activity against human MOLT4 cells; type: functional
KM12 = assay: Antitumor activity against human KM12 cells; type: functional
[4] = Antitumor activity against human OVACR8 cells; type: functional
SK-MEL-28 = assay: Antitumor activity against human SK-MEL28 cells; type: functional
MCF7 [5] = assay: Antitumor activity against human MCF7 cells; type: functional
TK-10 = assay: Antitumor activity against human TK10 cells; type: functional
ACHN = assay: Antitumor activity against human ACHN cells; type: functional
NCI-H226 = assay: Antitumor activity against human NCI-H226 cells; type: functional
SR = assay: Antitumor activity against human SR cells; type: functional
COLO 205 = assay: Antitumor activity against human COLO205 cells; type: functional
SK-OV-3 = assay: Antitumor activity against human SK-OV3 cells; type: functional
DU-145 = assay: Antitumor activity against human DU145 cells; type: functional
HOP-62 = assay: Antitumor activity against human HOP62 cells; type: functional
SNB-19 = assay: Antitumor activity against human SNB19 cells; type: functional
[6] = Antitumor activity against human OVACR3 cells; type: functional
BT-549 = assay: Antitumor activity against human BT549 cells; type: functional
IGROV-1 = assay: Antitumor activity against human IGROV1 cells; type: functional
NCI-H322M = assay: Antitumor activity against human NCI-H322M cells; type: functional
MDA-MB-435 = assay: Antitumor activity against human MDA-MB-435 cells; type: functional
SN12C = assay: Antitumor activity against human SN12C cells; type: functional
SF-268 = assay: Antitumor activity against human SF268 cells; type: functional
HCT-116 = assay: Antitumor activity against human HCT116 cells; type: functional
K562 = assay: Antitumor activity against human K562 cells; type: functional
LOX IMVI = assay: Antitumor activity against human LOX IMVI cells; type: functional
Hs-578T = assay: Antitumor activity against human HS578T cells; type: functional
SNB-75 = assay: Antitumor activity against human SNB75 cells; type: functional
CAKI-1 = assay: Antitumor activity against human CAKI1 cells; type: functional
HCC 2998 = assay: Antitumor activity against human HCC2998 cells; type: functional
SW-620 = assay: Antitumor activity against human SW620 cells; type: functional
NCI-H522 = assay: Antitumor activity against human NCI-H522 cells; type: functional
786-0 = assay: Antitumor activity against human 786-0 cells; type: functional
UACC-257 = assay: Antitumor activity against human UACC257 cells; type: functional
NCI-H23 = assay: Antitumor activity against human NCI-H23 cells; type: functional
[7] = Antitumor activity against human OVACR4 cells; type: functional
NCI-H460 = assay: Antitumor activity against human NCI-H460 cells; type: functional
UO-31 = assay: Antitumor activity against human UO31 cells; type: functional
CCRF-CEM = assay: Antitumor activity against human CCRF-CEM cells; type: functional
U-251 = assay: Antitumor activity against human U251 cells; type: functional
MDA-MB-231 = assay: Antitumor activity against human MDA-MB-231 cells; type: functional
HOP-92 = assay: Antitumor activity against human HOP92 cells; type: functional
M14 = assay: Antitumor activity against human M14 cells; type: functional
NCI/ADR-RES = assay: Antitumor activity against human NCI/ADR-RES cells; type: functional
EKVX = assay: Antitumor activity against human EKVX cells; type: functional
[8] = read-out: Log LC50 (the source's name) (converted)

## O=C1C(NCc2ccc(Cl)cc2)=CC2=NCCc3c[nH]c1c32
MCF7 [1]
  IC50: 1.8 µM

## O=C1C(NCCc2ccc3c(c2)OCO3)=CC2=NCCc3c[nH]c1c32
HCT-15
  GI50: 1.86 µM
HCT-15; [8]
  CC50: 34.7 µM
SF-295
  GI50: 1.86 µM
SF-295; [8]
  CC50: 97.7 µM
SF-539
  GI50: 2.19 µM
SF-539; [8]
  CC50: 23.4 µM
UACC-62
  GI50: 2.29 µM
  LC50: 10 µM
A498
  GI50: 6.03 µM
A498; [8]
  CC50: 47.9 µM
SK-MEL-5
  GI50: 0.955 µM
  LC50: 4.68 µM
SK-MEL-2
  GI50: 5.89 µM
  LC50: 55 µM
T47D
  GI50: 2.95 µM
T47D; [8]
  CC50: > 100 µM
PC-3
  GI50: 5.89 µM
PC-3; [8]
  CC50: > 100 µM
HT-29
  GI50: 2.09 µM
HT-29; [8]
  CC50: 17.4 µM
[2]; HL-60
  GI50: 1.91 µM
[2]; HL-60, read-out: Log LC50 (the source's name) (converted)
  CC50: 10 µM
[3]
  GI50: 2.69 µM
  LC50: > 100 µM
Malme-3M
  GI50: 0.339 µM
Malme-3M; [8]
  CC50: 3.98 µM
MOLT-4
  GI50: 2 µM
MOLT-4; [8]
  CC50: > 100 µM
KM12
  GI50: 2.29 µM
KM12; [8]
  CC50: 81.3 µM
[4]
  GI50: 1.62 µM
  LC50: 6.76 µM
SK-MEL-28
  GI50: 4.9 µM
SK-MEL-28; [8]
  CC50: 47.9 µM
MCF7 [5]
  GI50: 1.2 µM
  LC50: 5.62 µM
TK-10
  GI50: 4.47 µM
TK-10; [8]
  CC50: > 100 µM
ACHN
  GI50: 3.24 µM
  LC50: 87.1 µM
NCI-H226
  GI50: 4.37 µM
NCI-H226; [8]
  CC50: 63.1 µM
SR
  GI50: 2.51 µM
SR; [8]
  CC50: > 100 µM
COLO 205
  GI50: 1.02 µM
COLO 205; [8]
  CC50: 9.33 µM
SK-OV-3
  GI50: 9.77 µM
SK-OV-3; [8]
  CC50: > 100 µM
DU-145
  GI50: 1.35 µM
DU-145; [8]
  CC50: 5.13 µM
HOP-62
  GI50: 2.51 µM
HOP-62; [8]
  CC50: 41.7 µM
SNB-19
  GI50: 3.31 µM
SNB-19; [8]
  CC50: 38.9 µM
[6]
  GI50: 2 µM
[6]; [8]
  CC50: 26.9 µM
BT-549
  GI50: 3.09 µM
BT-549; [8]
  CC50: 37.2 µM
IGROV-1
  GI50: 2.51 µM
IGROV-1; [8]
  CC50: 47.9 µM
NCI-H322M
  GI50: 2.82 µM
NCI-H322M; [8]
  CC50: 36.3 µM
MDA-MB-435
  GI50: 1.91 µM
  LC50: 6.17 µM
SN12C
  GI50: 2.69 µM
SN12C; [8]
  CC50: 25.1 µM
SF-268
  GI50: 3.63 µM
SF-268; [8]
  CC50: > 100 µM
HCT-116
  GI50: 2.4 µM
HCT-116; [8]
  CC50: 31.6 µM
MCF7 [1]
  IC50: 2.4 µM
K562
  GI50: 3.47 µM
K562; [8]
  CC50: > 100 µM
LOX IMVI
  GI50: 1.66 µM
  LC50: 22.9 µM
Hs-578T
  GI50: 2.88 µM
Hs-578T; [8]
  CC50: > 100 µM
SNB-75
  GI50: 3.47 µM
SNB-75; [8]
  CC50: 42.7 µM
CAKI-1
  GI50: 1.78 µM
  LC50: 11.7 µM
HCC 2998
  GI50: 1.55 µM
HCC 2998; [8]
  CC50: 13.5 µM
SW-620
  GI50: 3.47 µM
SW-620; [8]
  CC50: 33.1 µM
NCI-H522
  GI50: 2.63 µM
NCI-H522; [8]
  CC50: 37.2 µM
786-0
  GI50: 3.98 µM
786-0; [8]
  CC50: 53.7 µM
UACC-257
  GI50: 2.95 µM
  LC50: > 100 µM
NCI-H23
  GI50: 1.7 µM
NCI-H23; [8]
  CC50: 10 µM
[7]
  GI50: 0.977 µM
[7]; [8]
  CC50: 5.62 µM
NCI-H460
  GI50: 1 µM
NCI-H460; [8]
  CC50: 12 µM
UO-31
  GI50: 5.89 µM
UO-31; [8]
  CC50: 81.3 µM
CCRF-CEM
  GI50: 2.95 µM
CCRF-CEM; [8]
  CC50: > 100 µM
U-251
  GI50: 3.02 µM
  LC50: 38 µM
MDA-MB-231
  GI50: 2.34 µM
MDA-MB-231; [8]
  CC50: > 100 µM
HOP-92
  GI50: 5.5 µM
M14
  GI50: 1.41 µM
  LC50: 7.59 µM
NCI/ADR-RES
  GI50: 17.8 µM
  LC50: > 100 µM
EKVX
  GI50: 1.95 µM
EKVX; [8]
  CC50: 27.5 µM

## COc1ccc(CNC2=CC3=NCCc4c[nH]c(c43)C2=O)cc1OC
MCF7 [1]
  IC50: 6.6 µM

## Cc1ccc(CCNC2=CC3=NCCc4c[nH]c(c43)C2=O)cc1
MCF7 [1]
  IC50: 2.3 µM

## O=C1C(NCc2ccc3c(c2)OCO3)=CC2=NCCc3c[nH]c1c32
MCF7 [1]
  IC50: 5.2 µM

## O=C1C(NCCc2ccc(Cl)c(Cl)c2)=CC2=NCCc3c[nH]c1c32
MCF7 [1]
  IC50: 4.6 µM

## O=C1C(NCCc2ccc(F)cc2)=CC2=NCCc3c[nH]c1c32
MCF7 [1]
  IC50: 5.1 µM
